Reference: patent US20240091267A1, “PRE-TREATMENT OF MSC WITH PPARB/DELTA AGONIST FOR TREATMENT OF ISCHEMIA-REPERFUSION INJURY” (Universite de Montpellier, priority 2020, published 2024)

How the values were obtained:
H9c2 cardiomyocytes = test: Transwell co-culture of MSC with H9c2 exposed to H2O2, specific DNA fragmentation in H9c2; assay type: cell-based, rattus norvegicus; details: vs naive MSC
Procedure: FIG. 7: Increased anti-apoptotic effects of PPARβ/δ-primed MSC on cardiomyocytes. (A) After 24 hours of MSC pharmacological preconditioning using PPARβ/δ agonist, cells were co-cultured using transwells (upper chamber) with H9c2 (lower chamber). Both cultures were exposed to 4 hours of 350 μM of H2O2 in minimal medium (serum deprivation). At the end of the protocol, specific DNA fragmentation was quantified in H9c2 cells and values were compared with those obtained for co-cultures with naive MSC or MSC pre-treated with PPARβ/δ antagonists (GSK0660 or GSK03787) and exposed to 350 H2O2μM (B, C, D) Scatter dot plot and bars were presented for specific DNA fragmentation quantified in H9c2 at the end of the protocols. Data (mean±SD for each group of treatment) were normalized by values obtained with naive MSC/H2O2 and compared using Kruskal-Wallis (Dunn's post hoc test). (B): data were obtained using the condition 1 protocol. (C): the condition 2 protocol P was followed and p value was noted **** for p<0.0001 (MSC, n=16 independent cultures vs MSC/H2O2, n=18). For the data obtained with condition 3 protocol (D), p value was noted * for p=0.0436 (MSC+1 μM GSK0660/H2O2, n=6 vs MSC/H2O2, n=10).
H9c2, rattus norvegicus cardiomyocytes, were cultured in Dulbecco's modified Eagle's medium (DMEM), supplemented with 10% fetal bovine serum (FBS), 100 Units/mL penicillin, and 100 μg/mL streptomycin. To induce apoptosis, H9c2 were cultured in a minimal medium (without FBS) containing 350 μM of H2O2 during 4 hours. In order to evaluate the effect of MSCs on cardiomyocytes, a co-culture assay was designed using the transwell system to avoid cell-cell contact. 15,000 cardiomyocytes (lower part) were plated per well of a 12-well dish with or 15,000 MSC (upper part) in presence of 350 OA of H2O2. Two different protocols of co-culture were performed. In protocol 1, H9c2 and co-cultured MSC were exposed to H2O2(with serum deprivation). In protocol 2, H9c2 were exposed to H2O2 in minimal medium during 4 hours and after a wash, cells were co-cultured in complete medium with MSC. In protocol 3, H9c2 were cultured in presence of H2O2 during 4 hours in regular medium deprived in serum, which was continued for an extra 1 hour. Then the co-culture of H9c2 with MSC was performed in complete medium for 1 hour. At the end of all protocols, H9c2 were recovered for apoptosis and RT-qPCR analysis.
DNA fragmentation was quantified in vitro on cell lysates with an enzyme-linked immunosorbent assay kit (Cell Death ELISA; Roche Diagnostics) designed to measure of histone-complexed DNA fragments (mono- and oligonucleosomes) out of the cytoplasm of cells after the induction of apoptosis.
To determine the role of PPARβ/δ on MSC-induced protective effect on cardiomyocytes we designed and developed three protocols in order to mimic the stress received by MSC when transplanted into infarcted tissues. The first protocol consisted in co-culturing naive or primed MSC with H9c2 exposed to 350 μM of H2O2 for 4 hours using transwell. The second protocol consisted in exposing […] μM of H2O2 for 4 hours before to co-culture them with naive or primed MSC in a complete medium. The third protocol consisted in exposing H9c2 to 350 μM of H2O2 for 4 hours followed by serum deprivation for 1 hour before to co-culture them with naive or primed MSC in a complete medium (FIG. 7A).

[1] = test system: LV protein extracts from murine IR hearts; test: Western blot of LV protein extracts from ex vivo IR hearts (cleaved caspase 3, pAKT/AKT, pERK1/2/ERK1/2); design: species or system mouse (C57BL/6J); details: for Cleaved caspase 3 (caspase 3 activation): IR hearts reperfused with MSC 2500 cells/mL, pre-treated 24 h or not (GW0742 1 μM)
Procedure: FIG. 9: (A) C57B16 mouse hearts were mounted on a Langendorff system. The ex vivo protocol comprises a 15 minute-period of stabilization, followed by 30 minutes of global ischemia achieved by stopping the flow through the aorta (no-flow). Reperfusion was achieved by restoring the Tyrode perfusion during 60 minutes (IR group). […] At the end of the protocol, hearts were collected, protein extracted for further analysis. (B, C, D) Western blot analysis was performed from LV protein extracts from IR non-treated or MSC-treated murine IR hearts (ex vivo) with or without a pharmacological pre-treatment. Scatter dot blots and mean±SD were plotted for Cleaved-caspase 3 (W=0.0322 for IR, n=10 vs MSC +GW0742, n=10) and for pAKT/AKT (p*=0.0385 for IR, n=8 vs MSC+GW0742, n=8). Data were compared using non parametric Kruskal-Wallis test (Dunn's post hoc test).
On the Langendorff system, the heart was subjected to ischemia-reperfusion (IR) protocol comprising, after a 15 min-stabilization period of Tyrode perfusion, a 30 min-period of no-flow to induce global ischemia). Reperfusion was achieved by restoring the perfusion during 60 min with the Tyrode solution alone (IR control) or with MSC cell in Tyrode solution (MSC) administrated during reperfusion. Ischemic postconditioning was induced at the end of global ischemia by the application of a conditioning stimulus comprising 3 cycles of 1 min-reperfusion/1 min-ischemia, followed by 54 min of reperfusion. For the ex vivo evaluation of MSC-based cell therapy, 80 to 150 mL of MSC (mean value 120 mL) cells prepared in the Tyrode solution at various concentrations (2500, 5000 et 20000 cells/mL) were perfused retrogradely via the aorta and the coronary vessels in isolated hearts during the 60 min-reperfusion phase.
Tissue samples (left ventricle) were rapidly frozen in liquid nitrogen after the end of ex vivo IR protocols. […] Protein concentrations were determined with the bicinchoninic acid (BCA) protein assay kit (Pierce). […]

[2] = protocol 1: MSC pretreated 24 h with 1 μM, co-cultured with H9c2 under 350 μM H2O2 4 h
[3] = protocol 2: H9c2 exposed to 350 μM H2O2 4 h, then co-culture in complete medium with MSC pretreated with 1 μM
[4] = protocol 3: H9c2 350 μM H2O2 4 h, serum deprivation 1 h, then co-culture in complete medium with MSC pretreated with 1 μM

SMILES | Specific DNA fragmentation in H9c2 (anti-apoptotic effect of MSC) (H9c2 cardiomyocytes; protocol 1: MSC pretreated 24 h with 0.1 μM, co-cultured with H9c2 under 350 μM H2O2 4 h) | Specific DNA fragmentation in H9c2 (anti-apoptotic effect of MSC) (H9c2 cardiomyocytes; [2]) | Specific DNA fragmentation in H9c2 (anti-apoptotic effect of MSC) (H9c2 cardiomyocytes; [3]) | Specific DNA fragmentation in H9c2 (anti-apoptotic effect of MSC) (H9c2 cardiomyocytes; [4]) | Cleaved caspase 3 (caspase 3 activation) [1] | Phosphorylation ratio pAkt/Akt ([1]; IR hearts, MSC pre-treated with 1 μM prior to administration during reperfusion, vs non-treated IR)
Cc1cc(SCc2sc(-c3ccc(C(F)(F)F)c(F)c3)nc2C)ccc1OCC(=O)O [GW0742] | exhibited a higher anti-apoptotic effect | exhibited a higher anti-apoptotic effect | induced a significant protective effect | induced a significant protective effect | inhibition of caspase 3 cleavage was further increased | significantly increased phosphorylation ratio pAkt/Akt
COC(=O)c1sccc1S(=O)(=O)Nc1ccc(Nc2ccccc2)cc1OC [GSK0660] |  | lose their capacity to protect cardiomyocytes from apoptosis | did not change MSC protective properties | lose their capacity to protect cardiomyocytes from apoptosis | restored full activation of caspase 3 | 
